According to PubChem BioAssay AID624028 (Vanderbilt Specialized Chemistry Center, 2012):

Target: Metabotropic glutamate receptor 3 (Rattus norvegicus) (UniProt P31422)
Test: PubChem AID 624028
Settings: TREx293 mGlu3/Galpha15, calcium fluorescence, antagonist mode

Sequence of Metabotropic glutamate receptor 3 (Rattus norvegicus) (P31422 whole entry, looked up): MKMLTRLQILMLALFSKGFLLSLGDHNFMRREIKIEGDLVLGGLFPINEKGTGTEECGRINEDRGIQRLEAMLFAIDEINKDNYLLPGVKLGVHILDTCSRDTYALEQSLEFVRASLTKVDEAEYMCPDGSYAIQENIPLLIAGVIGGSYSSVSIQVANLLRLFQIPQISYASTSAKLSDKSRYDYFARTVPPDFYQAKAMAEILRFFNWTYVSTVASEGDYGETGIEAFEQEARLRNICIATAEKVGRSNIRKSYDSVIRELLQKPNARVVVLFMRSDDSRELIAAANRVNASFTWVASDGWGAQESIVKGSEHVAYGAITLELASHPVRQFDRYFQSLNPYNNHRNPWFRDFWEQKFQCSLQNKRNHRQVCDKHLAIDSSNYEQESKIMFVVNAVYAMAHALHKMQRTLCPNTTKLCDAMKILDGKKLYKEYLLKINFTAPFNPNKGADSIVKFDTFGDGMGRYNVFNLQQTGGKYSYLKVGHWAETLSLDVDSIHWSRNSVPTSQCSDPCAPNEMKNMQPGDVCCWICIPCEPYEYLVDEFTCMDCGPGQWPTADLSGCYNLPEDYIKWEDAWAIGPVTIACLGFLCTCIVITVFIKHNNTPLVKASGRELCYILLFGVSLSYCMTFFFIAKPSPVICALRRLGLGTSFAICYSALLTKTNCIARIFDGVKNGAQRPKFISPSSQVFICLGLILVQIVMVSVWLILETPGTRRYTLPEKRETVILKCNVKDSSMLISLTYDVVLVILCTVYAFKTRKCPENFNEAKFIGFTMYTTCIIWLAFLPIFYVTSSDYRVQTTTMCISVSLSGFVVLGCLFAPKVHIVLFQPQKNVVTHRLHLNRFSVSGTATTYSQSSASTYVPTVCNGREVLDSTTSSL

IC50: 650 nM
Structure (SMILES): COc1ccc(C#Cc2ccc(C(=O)N3CCC[C@@H](CO)C3)cc2)cc1
